Data: ChEMBL document CHEMBL3997778, “β-Dihydroagarofuran-Type Sesquiterpenes from the Seeds of Celastrus monospermus and Their Lifespan-Extending Effects on the Nematode Caenorhabditis elegans” (2016)

System: Caenorhabditis elegans
Assay: Increase in life span of Caenorhabditis elegans Bristol N2 at late L4 larval stage at 100 uM in presence of 5-fluorodesoxyuridine relative to control
Assay type: functional

| SMILES | ILS at 100 µM [%] |
| --- | --- |
| CO[C@H]1C[C@@H]2CC[C@@H](C)[C@@](O)(O2)C(=O)C(=O)N2CCCC[C@H]2C(=O)O[C@H]([C@H](C)C[C@@H]2CC[C@@H](O)[C@H](OC)C2)CC(=O)[C@H](C)/C=C(\C)[C@@H](O)[C@@H](OC)C(=O)[C@H](C)C[C@H](C)/C=C/C=C/C=C/1C [SIROLIMUS] | 38 |

System: Caenorhabditis elegans
Assay: Increase in life span of Caenorhabditis elegans Bristol N2 at late L4 larval stage at 50 uM in presence of 5-fluorodesoxyuridine relative to control
Assay type: functional

| SMILES | ILS at 50 µM [%] |
| --- | --- |
| CC(=O)O[C@@H]1[C@H]2C[C@H](OC(=O)c3ccccc3)[C@]3(C)[C@@H](OC(C)=O)[C@H](OC(C)=O)C[C@@H](C)[C@@]13OC2(C)C | 14 |
| CC(=O)O[C@H]1[C@@H]2C[C@]3(OC2(C)C)[C@H](C)C[C@H](OC(C)=O)[C@@H](OC(C)=O)[C@@]3(C)[C@H]1OC(=O)c1ccccc1 | 12 |
| CC(=O)O[C@H]1[C@@H]2[C@@H](OC(C)=O)[C@]3(OC2(C)C)[C@H](C)C[C@@H](OC(C)=O)[C@H](OC(C)=O)[C@@]3(C)[C@H]1OC(=O)c1ccccc1 | 15 |
| CC(=O)O[C@H]1[C@@H]2[C@@H](OC(=O)c3ccccc3)[C@]3(OC2(C)C)[C@H](C)C[C@@H](OC(C)=O)[C@H](OC(C)=O)[C@@]3(C)[C@H]1OC(=O)c1ccccc1 | 28 |
| CC(=O)O[C@@H]1[C@@H]2[C@@H](OC(C)=O)[C@]3(OC2(C)C)[C@H](C)C[C@@H](OC(C)=O)[C@H](OC(C)=O)[C@@]3(C)[C@@H]1OC(=O)c1ccccc1 | 17 |
| CC(=O)O[C@@H]1[C@@H]2[C@@H](OC(C)=O)[C@]3(OC2(C)C)[C@H](C)CC[C@H](O)[C@@]3(C)[C@@H]1OC(=O)c1ccccc1 | 16 |
| CC(=O)O[C@@H]1[C@@H]2[C@@H](OC(C)=O)[C@]3(OC2(C)C)[C@H](C)CC(=O)[C@H](OC(C)=O)[C@@]3(C)[C@@H]1OC(=O)c1ccccc1 | 37 |
| CC(=O)OC[C@]12[C@@H](OC(=O)c3ccccc3)[C@@H](OC(C)=O)[C@@H]3[C@@H](OC(C)=O)[C@]1(OC3(C)C)[C@H](C)C[C@H](OC(C)=O)[C@@H]2OC(C)=O | 16 |
| CC(=O)O[C@@H]1[C@@H]2[C@@H](OC(C)=O)[C@]3(OC2(C)C)[C@H](C)C[C@H](OC(=O)/C=C/c2ccccc2)[C@H](OC(C)=O)[C@@]3(C)[C@@H]1OC(=O)c1ccccc1 | 15 |
